Type in all cases: cell-based, human
For assay [1], the system named is p-m-Tor, p-GSK-3β, p-ERK, p-CREB in SH-SY5Y cells. The experiment in a line: Western blotting with selective inhibitors of signaling pathways. As for the experimental part: Immunoblots with PrRP31 and palm^11-PrRP31: (a) and insulin: (b) and their quantifications: (c). SH-SY5Y cells were incubated firstly with selective inhibitors for 2 min and then either with PrRP31 and its palmitoylated analog at a final concentration 1 × 10^−5 M, or with insulin in the final concentration 1 × 10^−7 M at 37 °C for 8 min, or alone in serum-free medium. Activated protein was normalized to loading control, GAPDH. Data are presented as the means ± SEM as a percentage of control cells treated with medium alone. Analysis is made between groups as shown in the graph by a Student’s t-test, * p < 0.5, ** p < 0.01, *** p < 0.001(each sample in triplicates).
(§1) Eight minutes of incubation was performed in a series of experiments with different exposure times (5, 10, 15, 30, and 60 min) to PrRP31 and its palmitoylated analog. Activation of analogs was strongest after 10 min. Then, the cells were treated with inhibitors of signaling pathways for 2 min, and analogs were added for 8 min. The time of exposure was set to 8 min to ensure that the incubation time for PrRP31 and its palmitoylated analog was the same. The controls and compounds were tested in triplicate in three independent experiments. The PI3K/Akt pathway is one of the main signaling pathways of insulin; therefore, insulin was used as a positive control. Scrambled peptide was used as a negative control. Activation is expressed as the ratio of the activated protein to the total amount of the protein. GAPDH was used as a loading control.
For further research, inhibitors of signaling pathways were used. The growth medium was exchanged for serum-free DMEM 16 h before the experiment. On the day of the experiment, cells were incubated for 2 min with rapamycin, SB216736 or U0126 at a final concentration of 1 × 10^−6 M; then, PrRP31, palm^11-PrRP31 or scrambled peptide at a final concentration of 1 × 10^−5 M or insulin at a concentration of 1 × 10^−7 M was added for 8 min. The plates were stored at 37 °C. The controls and compounds were tested in triplicate.
In general terms: A western blot detects proteins with antibodies after separation by electrophoresis.

Assay [2] relates to PI3K/Akt signaling pathway in SH-SY5Y cells. Nature of the assay: Western blotting of PI3K/Akt signaling pathway after 8 min incubation. The note with it: 37 °C. As for the experimental part:
Figure 1 Prolactin-releasing peptide 31 (PrRP31) and palm^11-PrRP31 increased phosphoinositide-3 kinase (PI3K/Akt) signaling pathway in SH-SY5Y cells. Immunoblots: (a) and their quantifications: (b). SH-SY5Y cells were incubated either with PrRP31 and its palmitoylated analog and scrambled at a final concentration 1 × 10^-5 M, or with insulin at the final concentration 1 × 10^−7 M at 37 °C for 8 min, or medium alone (control). Activation was expressed as the ratio of the activated protein to the total amount of the protein, both normalized to loading control, glyceraldehyde 3-phosphate dehydrogenase (GAPDH). Data are presented as the means ± SEM as a percentage of control cells analyzed by one-way ANOVA followed by the Dunnett post hoc test, * p < 0.5, ** p < 0.01, **** p < 0.0001 (n = 3, each sample in triplicates).
(§2) For the investigation of the molecular mechanism of PrRP31 and its analog in the cells, signaling pathways were studied by Western blotting (WB). The cells were cultured in 6-well plates at a density of 800,000 cells per well. Growth medium was exchanged for serum-free DMEM 16 h before an experiment, and then, the cells were incubated with PrRP31, palm^11-PrRP31, or scrambled peptide at a final concentration of 1 × 10^−5 M or insulin at a concentration of 1 × 10^−7 M at 37 °C for 8 min. The cells were rapidly cooled on ice and lysed in 400 µl of Laemmli sample buffer (62.5 mM Tris-HCl with pH 6.8, 2% SDS, 10% glycerol, 0.01% bromophenol blue, 5% mercaptoethanol, 50 mM NaF, and 1 mM Na3VO4) and stored at −20 °C. Afterward, the cell lysates were analyzed by WB. SDS-electrophoresis and WB were carried out using a Criterion system with a 26-well 4−15% Criterion^TM TGX^TM Precast Midi Protein Gel (Bio-Rad, Hercules, CA, USA) at a constant voltage of 200 V or 100 V, respectively.
(§3) Subsequently, the membranes were incubated overnight with primary antibody (Ab) at 4 °C, according to the manufacturer´s instructions (Table 2). The next day, the membranes were incubated with an HRP-linked secondary antibody for 1 h at room temperature. Chemiluminescence was visualized with a ChemiDoc^TM System (Bio-Rad). Band intensities were normalized using glyceraldehyde 3-phosphate dehydrogenase (GAPDH) as an internal loading control.
as §1

Assay [3] has as its system p-c-Jun, p-ERK, p-Bad, Bax/Bcl-2 in SH-SY5Y cells. Nature of the assay: Western blotting of anti-apoptotic signaling in MG-stressed cells. To be noted: 0.6 mM MG 16 h vs control cells. As for the experimental part:
(§4) Figure 7 PrRP31 and palm^11-PrRP31 affected anti-apoptotic signaling in SH-SY5Y cells. Immunoblots: (a) and their quantifications: (b). SH-SY5Y cells were pretreated with PrRP31 and palm^11-PrRP31 at a concentration of 1 × 10^−5 M for 4 h and then stressed with 0.6 mM MG for 16 h. Activation was expressed as the ratio of the activated protein to the total amount of the protein, both normalized to loading control, GAPDH. Data are presented as the means ± SEM as a percentage of control cells treated with medium alone. Analysis is made vs. MG by a Student’s t-test, * p < 0.5, ** p < 0.01 (each sample in triplicates).
as §2, §3
(§5) For analysis of the molecular mechanism during MG stress, the growth medium was exchanged for serum-free DMEM 16 h before the experiment. The cells were pretreated with 1 × 10^−5 M PrRP31 or palm^11-PrRP31 for 4 h; then, MG was added to a final concentration of 0.6 mM, and the cells were incubated at 37 °C for 16 h. The controls and compounds were tested in triplicate.

Assay [4] deals with Tau protein phosphorylation in SH-SY5Y cells. Nature of the assay: Western blotting of Tau phosphorylation in MG-stressed cells. To be noted: 0.6 mM MG 16 h vs control cells. As for the experimental part: as §4, with “8” for “7”, “attenuate Tau hyperphosphorylation at the epitope Ser396” for “affected anti-apoptotic signaling”, “SH-SY5Y. Immunoblots with:” for “SH-SY5Y cells. Immunoblots:”, “sample replicate” for “sample”, “triplicate).” for “triplicates).”
as §2, §3, §5

The mark [5] stands for this setting: inhibitor 1 × 10^−6 M for 2 min, then peptide for 8 min, under the control level.
[6] abbreviates: PrRP31 and palm^11-PrRP31 1 × 10^−5 M, insulin 1 × 10^−7 M, 37 °C, 8 min.

Results on six compounds are retold here after publication PMC7503370, “Cellular Signaling and Anti-Apoptotic Effects of Prolactin-Releasing Peptide and Its Analog on SH-SY5Y Cells” (International Journal of Molecular Sciences, 2020).

Consider `CO[C@H]1C[C@@H]2CC[C@@H](C)[C@@](O)(O2)C(=O)C(=O)N2CCCC[C@H]2C(=O)O[C@H]([C@H](C)C[C@@H]2CC[C@@H](O)[C@H](OC)C2)CC(=O)[C@H](C)/C=C(\C)[C@@H](O)[C@@H](OC)C(=O)[C@H](C)C[C@H](C)/C=C/C=C/C=C/1C` [rapamycin, Rapamycin], for which the “effect on the increase of p-m-Tor (Ser2448) by PrRP31, palm^11-PrRP31 and insulin” value in assay [1] (setting [5]) was “inhibited”.

As for “insulin: human insulin used as a positive control”, in assay [2] (positive control, 1 × 10^−7 M), the “activation of proteins of the insulin signaling cascade” value is on record as “significantly activated”. Besides, in assay [1] (setting [6]), the “p-CREB after incubation with peptide, no inhibitor” value is “increased” and the “p-ERK after incubation with peptide, no inhibitor” value is recorded as “increased”. In addition, in assay [1] (PrRP31 and palm^11-PrRP31 1 × 10^−5 M, insulin 1 × 10^−7 M, 37 °C, 8 min, normalized to GAPDH, triplicates), the “p-m-Tor (Ser2448) after application of peptide, no inhibitor” value is on record as “significantly increased”. For the same compound, in assay [1] (palm^11-PrRP31 1 × 10^−5 M, insulin 1 × 10^−7 M, 37 °C, 8 min, normalized to GAPDH, triplicates), the “p-GSK-3β (Ser9) after incubation with peptide, no inhibitor” value is reported as “slight increase”.

As to `CC(=O)C=O` [MG, methylglyoxal, reference compound], in assay [3], the “level of p-Bad (Ser112)/Bad after MG” value was “increased”, the “level of p-Bad (Ser136)/Bad after MG” value is “increased” and the “level of p-c-Jun (Ser73)/c-Jun after MG” value is on record as “increased”. In addition, in assay [4], the “Tau phosphorylation at Ser198/199/202 (Tau 1)/Tau 5 after MG” value is reported as “tended to increase” and the “Tau phosphorylation at Ser396 after MG” value is listed as “increased”.

On to “GHFTHSIRMI K^11 (γ-E (N-palm))TPRNASVYARPCitDWWGICitPES [scrambled-palm^11-PrRP31]”, for which the “effect on the PI3K/Akt pathway” value in assay [2] (negative control, 1 × 10^-5 M) was “did not significantly affect”.

With `Cn1cc(C2=C(c3ccc(Cl)cc3Cl)C(=O)NC2=O)c2ccccc21` [SB216736], the “effect on the level of p-GSK-3β (Ser9) in cells treated with insulin” value in assay [1] (inhibitor 1 × 10^−6 M for 2 min, then insulin 1 × 10^−7 M for 8 min) is reported as “tended to decrease”. In assay [1] (inhibitor 1 × 10^−6 M for 2 min, then palm^11-PrRP31 1 × 10^−5 M for 8 min), the “effect on the palm^11-PrRP31-induced increase of p-GSK-3β (Ser9)” value is “significantly reversed”.

Turning to `N#CC(=C(/N)Sc1ccccc1N)/C(C#N)=C(/N)Sc1ccccc1N` [U0126], the “effect on the increase of p-ERK and p-CREB by PrRP31, palm^11-PrRP31 and insulin” value in assay [1] (setting [5]) is “significantly blocked”.
